# Data from US9717746B2 (priority 2014, dated 2017).
# Columns and labels:
# hippocampal slices [1] = tested on: hippocampal slices
# hippocampal slices [2] = tested on: hippocampal slices; remark: listed apart in the source
Compound,effect of antidote per se on PS (without neurotoxicant) (hippocampal slices [1]),neurotoxicity of the neurotoxicant (PS area) (hippocampal slices [2])
"CCCCCCCCCCCCCCCCCCOCC(COP(=O)([O-])OCC[N+](C)(C)C)OC (racemic) [edelfosine, 1-O-octadecyl-2-O-methyl-rac-glycero-3-phosphocholine]",innocuous,
CC[C@@H]1C(=O)OC[C@@H]1Cc1cncn1C [pilocarpine],,neurotoxicity of pilocarpine increases at high potassium concentration
